Consider one compound from patent publication US5342842A, “Pyrimidone derivatives and analogs in the treatment of asthma or certain skin disorders” (Pfizer Inc., priority 1992, dated 1994).

SMILES strings stand for the structures. pIC50: −log10 of the molar value.

A word on the ED50: it is the dose at which the effect has come halfway, by size or by number of responders.

Experiment [1] has as its system human PDE. Briefly: Inhibition of PDE in intact human peripheral blood leukocyte preparation (human PDE assays, Dr. Hanifin). The class given is cell-based. From the text: (§1) See Grewe et al., J. Allergy Clin. Immunol., v. 70, pp. 452-457, 1982. […] Dr. Hanifin has a source of human PDE isolated from mononuclear leukocyte. They were approached and readily agreed to test 5-[3-(exo-bicyclo[2.2.1]hept-2-yloxy)-4-methoxyphenyl]-3,4,5,6-tetrahydropyrimidin-2(1H)-one in their human PDE assays (see Cooper et al., cited above).

Experiment [2] has as its system Eosinophil Migration into Sensitized Lung Tissue. Briefly: Inhibition of eosinophil migration into sensitized lung tissue challenged with antigen in guinea pigs (specific EPO response in lung lavage). It is filed as in vivo, guinea pig. Particulars: Cavia porcellus, po, P.O., guinea pigs sensitized with anti-OA IgG1, ovalbumin aerosol challenge, lavage after 18 hours. On the procedure:
Normal Hartley guinea pigs (300-350 grams) delivered from Charles River Laboratories were housed 5-7 days before sensitization. Guinea pigs were then sensitized with 0.5 mg/kg anti-OA IgG1 or saline as control. After 48-72 hours, guinea pigs were dosed P.O. in groups of six animals each with compounds at up to 32 mg/kg using 2% Tween 80 as vehicle. After 1-1.5 hours the animals were injected i.p. with 5 mg/kg pyrilamine. Thirty minutes following pyrilamine administration, animals were exposed to 10 minutes of a 0.1% ovalbumin (OA) aerosol followed by a 15 minute cloud decay period in a Tri-R Airborne Infection Apparatus (Compression air flow =20 L/min, main air flow =8.4 L/min). Guinea pigs were removed from the apparatus and caged for 18 hours prior to sacrifice and the following lung lavage procedure. […]
The aliquoted sample with Triton was diluted with 1 ml PBS/0.1% Triton buffer (pH 7.0). […] The O.D. of the mixture was measured at 490 nm, with background O.D. (blank tube) subtracted out.
Duplicate O.D. readings were averaged to obtain a single value for each animal. Average O.D. ± standard error is calculated using the six obtained values within each group of animals. Specific EPO response due to antigen challenge is calculated by: [formula] Percent inhibition of specific EPO response due to drug pretreatment is calculated by: [formula]

Experiment [3] has as its system antigen-induced skin edema. Briefly: Inhibition of skin edema in guinea pigs sensitized to ovalbumin. The class given is in vivo, guinea pig. Particulars: 32 mg/Kg oral. On the procedure:
Four guinea pigs (Hartley, male, 350-400 g) were sensitized with anti-ovalbumin IgG1 antibody. Two guinea pigs were orally dosed with 32 mg/Kg of the test compound and two other guinea pigs were dosed with vehicle (2% Tween-80). One-hour after dosing, each guinea pig was injected intraveneously with 1 ml of Evan Blue (7 mg/ml) and then his skin was challenged intradermally with 0.1 ml of ovalbumin (0.1%) or PBS. Twenty minutes after challenge, the skin was removed and skin edematous site (circular blue spots at challenge sites) was examined visually.

For experiment [4], the system named is human PDE. The experiment can be described thus: Inhibition of PDE in leukocyte homogenate preparation (human PDE assays, Dr. Hanifin). The class given is biochemical.
Source text: as §1

Experiment [5] has as its target Pulmonary Phosphodiesterase (PDEIV). Briefly: Inhibition of pulmonary phosphodiesterase (PDEIV) from guinea pig lung, [3H]cAMP hydrolysis. It is filed as biochemical. The following applies: 1 μM [3H]-cAMP, 37° C., 10 minutes, 1% DMSO, read-out: IC50, concentration which inhibits 50% of specific hydrolysis of [3H]cAMP to [3H]5' AMP. The procedure: Lung tissue from guinea pigs was placed in a homogenization buffer solution (20 mM Bistris, 5 mM 2-mercaptoethanol, 2 mM benzamidine, 2 mM EDTA, 50 mM sodium acetate, pH 6.5) at a concentration of 10 ml/gm of tissue. The tissue was homogenized using a Tekmar Tissumizer at full speed for 10 seconds. Phenylmethylsulfonyl fluoride (PMSF, 50 mM in 2-propanol) was added to the buffer immediately prior to homogenization to give a final PMSF concentration of 50μM. The homogenate was centrifuged at 12,000×g for 10 minutes at 4° C. The supernatant was filtered through gauze and glass wool and then applied to a 17×1.5 cm column of DEAE-Sepharose CL-6B, pre-equilibrated with homogenization buffer, at 4° C. A flow rate of 1 ml/min was used. After the supernatant had passed through the column, the column is washed with a volume of homogenization buffer at least two times that of the supernatant. […] Fractions were saved based on specific PDEIV activity, determined by [^3 H]cAMP hydrolysis and the ability of a […]. […]
The reaction tubes were shaken and placed in a water bath (37° C.) for 10 minutes, at which time the reaction was stopped by placing the tubes in a boiling water bath for 2 minutes. […] After vortexing, 1 ml of the elution was added to 3 ml Atomlight scintillation fluid in an appropriate vial, vortexed, and counted for [^3 H].
Percent inhibition is determined by the formula: [formula] […]

For `COc1ccc(C2CNC(=O)NC2)cc1O[C@@H]1C[C@H]2CC[C@@H]1C2` (relative stereo) [5-[3-(exo-bicyclo[2.2.1]hept-2-yloxy)-4-methoxyphenyl]-3,4,5,6-tetrahydropyrimidin-2(1H)-one], the “potency in inhibiting PDE compared to Ro-20-1724” value in the experiment with human PDE [1] (intact human peripheral blood leukocyte preparation, compared to Ro-20-1724) is “even greater potency than Ro-20-1724”; in the experiment with human PDE [4] (leukocyte homogenate preparation, compared to Ro-20-1724) it was “even greater potency than Ro-20-1724”. Also, the pIC50 in the experiment on human PDE [1] (intact human peripheral blood leukocytes) was 6.52; with human PDE [4] (human leukocyte homogenate preparation), 6.70; in experiment [5] it was 6.30. The 50% effective dose (ED50) in experiment [2] is 10 mg/kg. Besides, the “intensity and area of blue spots at antigen-challenged skin sites as compared to vehicle-dosed animals” value in experiment [3] (two guinea pigs, intradermal ovalbumin (0.1%), 20 minutes after challenge, visual examination) was “markedly reduced”. Also, in experiment [3] (conclusion of the test), the “effectiveness against antigen-induced skin edema in guinea pigs” value was “effective against antigen-induced skin edema in guinea pigs”.
